The record followed here is ChEMBL document CHEMBL4513101, “Naegleria gruberi Pathogen Box compounds screening” (2021).

The source made the active and inactive calls. No stated cut-off is given here; in the data, active = inhibition of 80% or more and inactive = less.

This assay concerns Naegleria gruberi. Kind of assay: microbe, parasite or virus in culture. In kind it is functional. To be noted: NEG-M, CONC 10 uM.
Description: Growth inhibiting activity of Naegleria gruberi in vitro
For `CC(C)C(C(=O)Nc1ccc(S(=O)(=O)N(C)C)cc1)c1ccc(Cl)cc1` (stereo not given), the inhibition at 10 µM is listed as 41% (not active).
The result for `Nc1cccnc1Nc1ccc(Cl)cc1` reads 4.1% (not active).
Under `CC1CC1C(=O)NC1CCN(CC2(c3ccccc3)CCCCC2)CC1` (stereo not given) stands 43.8% (not active); under `CC(C)(C)c1cnc(NC(=O)c2ccccc2O)s1`, 0% (not active).
Under `COc1ccc(C2=NCCN2)cc1-c1cn(-c2cccc(C3=NCCN3)c2)nn1` stands 21.7% (not active); under `N#Cc1nc(-c2ccccc2F)oc1NCCc1ccccc1`, 4.7% (not active).
On to `NS(=O)(=O)c1cncc(-c2ccc3nccc(-c4cn[nH]c4)c3n2)c1`, for which the inhibition at 10 µM is reported as 0% (not active).
As for `O=C1[C@@H](Oc2ccccc2)[C@@H](c2ccc(Cl)cc2)N1CCn1cnc2c(NCc3ccccc3)ncnc21`, the inhibition at 10 µM is 0% (not active).
The result for `NC(=O)c1cc(Br)ccc1OCCOc1ccccc1` reads 36.1% (not active); that for `CCCCOC(=O)Nc1cc2nc(C3CCCCC3)[nH]c2cc1N1CCCC1`, 64.3% (not active).
Take `CCn1ncc2c(NC3CCOCC3)c(CNC(=O)c3ccnn3C)c(C)nc21`: the inhibition at 10 µM was 0.8% (not active).
The result for `COc1cc(NC(C)CCCN)c2ncccc2c1` (stereo not given) [PRIMAQUINE] reads 10.7% (not active); that for `FC(F)(F)c1cccc(-c2nc3c(NCc4ccncc4)nccc3[nH]2)c1`, 25.1% (not active).
The result for `COc1ccc(-c2onc(C(F)(F)F)c2-c2ccc(Cl)cc2)c(O)c1` reads 45.5% (not active); that for `Cc1cc(Nc2ccncc2)n2nc(C)c(-c3ccccc3Cl)c2n1`, 27.7% (not active); that for `CC1CS(=O)(=O)CCN1/N=C/c1ccc([N+](=O)[O-])o1` (stereo not given) [NIFURTIMOX], 11.1% (not active).
Under `Cc1cc(C(=O)Nc2cnn(Cc3ccc(Cl)cc3Cl)c2)no1` stands 65% (not active).
Turning to `Cc1cc(C2=NOC(c3cc(Cl)c(F)c(Cl)c3)(C(F)(F)F)C2)ccc1C(=O)NCc1ccc2c(c1)C(C)(C)OB2O` (stereo not given), the inhibition at 10 µM is 47.6% (not active).
The result for `CCN(CC)S(=O)(=O)c1ccc(C(=O)Nc2cc(C)nn2-c2nc(C)c(C)c(=O)[nH]2)cc1` reads 41.8% (not active).
With `CCOc1ccc(-c2nc(NC(=O)CS(=O)(=O)c3ccccc3)sc2C)cc1`, the inhibition at 10 µM is reported as 50.9% (not active).
Take `Cc1ccc(-c2nc(CN(Cc3ccccn3)C(C)C)cs2)o1`: the inhibition at 10 µM is 26.7% (not active).
The result for `Nc1ncc(-c2ccc(C(F)(F)F)nc2)cc1-c1ccc(C(F)(F)F)nc1` reads 16.5% (not active); that for `COc1cccc(OCC(=O)c2ccc(Br)cc2)c1`, 33.4% (not active).
As for `Cc1ccccc1C(=O)N1N=C(Nc2ccccc2)SC1(C)C`, the inhibition at 10 µM is given as 12.6% (not active).
The result for `Cc1cc2ccccc2n1CC(=O)N1CC(C(=O)N2CCCCC2)Oc2ccccc21` (stereo not given) reads 52.5% (not active); that for `c1ccc(-c2[nH]c3ccccc3c2C(c2ccccn2)N2CCCC2)cc1` (stereo not given), 32.7% (not active); that for `O=C(NCCc1ccn(-c2ccccc2)n1)C1CCCCC1`, 6.2% (not active).
The result for `CCc1ccc([C@@H]2C[C@H](C(F)(F)F)n3ncc(C(=O)NCc4ccc(OC)cc4)c3N2)cc1` reads 29% (not active); that for `O=C(NCc1nnc2n1CCCCC2)c1ccc(-c2ccc(F)cc2)o1`, 29.3% (not active).
Under `COc1cccc(-c2nc3c(N4CCCC4)cccc3n2CC2CCCN2)n1` (stereo not given) stands 51.5% (not active).
Turning to `COC(=O)Nc1nc2cc(C(=O)c3ccccc3)ccc2[nH]1` [MEBENDAZOLE], the inhibition at 10 µM is 29.8% (not active).
The result for `C[C@H]1COc2c(N3CCN(C)CC3)c(F)cc3c(=O)c(C(=O)O)cn1c23` [LEVOFLOXACIN] reads 0% (not active); that for `CC(=O)N1CCc2cc3nc(C)cc(C)c3cc21`, 19.9% (not active); that for `Cc1nc(-c2cccc(NCc3ccccc3)c2)[nH]c1C`, 8.1% (not active).
The result for `CN(C)CCNC(=O)N1CCCN(c2ncnc3cc(-c4ccccc4)sc23)CC1` reads 29.4% (not active); that for `O=C(NCCN1CCCC1)c1cc(NCCCCN2CCC(F)(F)CC2)nc2ccc(Cl)cc12`, 4.3% (not active).
Under `CC(=O)NCC1CN(c2ccc(-c3ccc(CNCc4cn[nH]n4)cc3)c(F)c2)C(=O)O1` (stereo not given) stands 26.2% (not active).
As for `O=C(C1CCCCC1)N1CC(=O)N2CCc3ccccc3C2C1` (stereo not given) [PRAZIQUANTEL], the inhibition at 10 µM is recorded as 41.5% (not active).
Under `COc1ccc(N(CCc2cccc(C)n2)C(=O)C2CCCCC2)cc1` stands 20% (not active); under `COc1ccc(-c2nc(-c3cccc(NC(=O)Cc4ccc(F)cc4)c3)no2)cc1OC`, 35.4% (not active).
For `CCCCc1ccc(C(=O)Nc2nccc3ccccc23)nc1`, the inhibition at 10 µM is listed as 43.2% (not active).
Under `CC1=NN(c2nc3ccccc3s2)C(=O)C1Cc1cccc2ccccc12` (stereo not given) stands 57.2% (not active).
For the molecule `O=C(Nc1nnc(-c2ccc(Cl)s2)o1)c1ccc(Cl)s1`, the inhibition at 10 µM is recorded as 21.9% (not active).
Under `COc1ccc2nccc(NC(=O)C3CCN(CCc4ccc(Cl)cc4)CC3)c2n1` stands 18.8% (not active); under `CC(Oc1ccccc1)C(=O)Nc1nc(-c2ccccn2)cs1` (stereo not given), 32.3% (not active); under `CN1CCN(c2nccc3nc(-c4ccc(F)c(F)c4)[nH]c23)CC1`, 35% (not active).
Under `Cc1nc2ccccn2c1C(=O)NCc1ccc(Cl)cc1` stands 37.8% (not active).
The result for `CCc1nc2ccc(Cl)cn2c1C(=O)NCc1ccc(N2CCC(c3ccc(OC(F)(F)F)cc3)CC2)cc1` [TELACEBEC] reads 42.4% (not active); that for `CC(C)C(Oc1cccc2ccccc12)C(=O)O` (stereo not given), 1.3% (not active); that for `CC(C(=O)N1CCCC1)N1CCN(S(=O)(=O)c2ccc(C(C)(C)C)cc2)CC1` (stereo not given), 4.7% (not active).
As to `CCc1ccc(C(NCc2nc(N)nc(N(C)C)n2)C(C)C)cc1` (stereo not given), the inhibition at 10 µM is reported as 18.9% (not active).
The result for `Cc1c[nH]c(CCNC(=O)c2cc(-c3ccc(Cl)cc3)cs2)n1` reads 38.3% (not active).
The result for `O=C(Nc1ccnc(-c2cccnc2)n1)c1cc(C(F)(F)F)cc(C(F)(F)F)c1` reads 44.3% (not active).
Turning to `COc1ccc(C2=NN(C3CCCCCC3)C(=O)[C@@H]3CC=CC[C@H]23)cc1OCCCCOc1ccc(-c2nnn[nH]2)cc1`, the inhibition at 10 µM is reported as 30.2% (not active).
The result for `C[C@H]1c2cccc(O)c2C(=O)C2=C(O)[C@]3(O)C(=O)C(C(N)=O)=C(O)[C@@H](N(C)C)[C@@H]3[C@@H](O)[C@@H]21` [DOXYCYCLINE] reads 59.8% (not active); that for `O=C(Nc1nnc(-c2ccc(Cl)cc2)o1)c1cccc(C(F)(F)F)c1`, 19.7% (not active); that for `COc1ccc(-c2nn(C(C)C)c3ncnc(N)c23)cc1OC`, 49.5% (not active).
The result for `O=C(Nc1cccc(Cl)c1)c1cnc(N2CCN(c3ccncc3)CC2)c(Cl)c1` reads 39.6% (not active).
The result for `C[C@]1(O)C[C@@H](c2nc(-c3ccc4ccc(-c5ccccc5)nc4c3)c3c(N)nccn32)C1` [LINSITINIB] reads 59.4% (not active).
On to `Brc1cncc(-c2cc(NCCCn3ccnc3)nc(-c3ccccc3)n2)c1`, for which the inhibition at 10 µM is 33.8% (not active).
The result for `Cc1ccc(NC(=O)c2nc[nH]c2C(=O)Nc2nc3ccccc3[nH]2)c(C)c1` reads 22.8% (not active).
The result for `Cc1nc(-c2ccccn2)nc(N(C)CCc2ccccc2)c1Cl` reads 21.1% (not active); that for `CNC(=O)C1Cc2c([nH]c3cc(Cl)ccc23)C2(CCN(CCc3ccccc3)CC2)N1` (stereo not given), 11.5% (not active); that for `CNC(=O)C1Cc2ccccc2N1C(=O)Cc1ccc(F)cc1` (stereo not given), 38% (not active).
The result for `COc1ccc(C2CC(c3cccs3)=NN2C(=O)c2ccco2)cc1OC` (stereo not given) reads 34.6% (not active).
Consider `COc1cc(CN2CCC3(C=Cc4ccccc43)CC2)cc2c1OCO2`, for which the inhibition at 10 µM is 38.6% (not active).
Under `O=C(NC1CC1)c1ccc(N2CCC(Cc3ccccc3)CC2)nc1` stands 59.1% (not active).
Under `Cc1cc(C)c2cc(C(=O)NC3CCCCCCC3)[nH]c2c1` stands 30.2% (not active); under `Cc1ccc2[nH]c(C3CCCNC3)c(-c3ccncc3)c2c1` (stereo not given), 9.5% (not active).
The result for `c1ccc2c(c1)CN(CC1CC1)CC1(CCN(Cc3c[nH]c4cnccc34)CC1)O2` reads 4.4% (not active).
In the case of `O=C(Cn1ccnc1[N+](=O)[O-])NCc1ccccc1` [BENZNIDAZOLE], the inhibition at 10 µM is listed as 37.4% (not active).
Under `COc1cccc(-n2nnnc2S(C)(=O)=O)c1` stands 78.8% (not active).
Under `C[C@H](c1ccc2c(c1)CCCC2)N(C)c1ncc2c(N)nc(N)nc2n1` stands 29.6% (not active); under `Nc1c2c(nc3sc4c(c13)CCCC4)CCCC2`, 48.3% (not active).
The result for `Cc1ccc2nc(Cl)c(CNCc3cccs3)cc2c1` reads 35.5% (not active); that for `COc1cccc(-n2nnnc2S(=O)(=O)Cc2ccccc2)c1`, 85.8% (active).
Turning to `NS(=O)(=O)c1cccc(-c2ccc3ncc(N4CCOCC4)nc3c2)c1`, the inhibition at 10 µM is 26% (not active).
Under `O=C(Nc1nc(-c2ccccn2)cs1)c1cncn1-c1ccccc1` stands 45.9% (not active); under `O=C1COCc2ccc(Br)cc2N1Cc1ccc(C(F)(F)F)cc1`, 26.7% (not active).
Under `OCc1ccc(-c2cncc(Nc3cccc(Cl)c3)c2)cc1` stands 18.8% (not active).
